In this assay the target is T1, Human PD-L1/PD-1 (Homo sapiens, UniProt Q9NZQ7).
T1 construct: made in house; host or cells: HEK293T
The experiment in a line: HTRF PD-1-Ig/PD-L1-His binding assay (human PD-L1). The note with it: read-out: HTRF Human PD-L1/PD-1 Binding Assay IC50. The source says: The ability of the macrocyclic peptides of the present disclosure to bind to PD-L1 was investigated using a PD-1/PD-L1 Homogenous Time-Resolved Fluorescence (HTRF) binding assay.
Homogenous Time-Resolved Fluorescence (HTRF) Assays of Binding of Soluble PD-1 to Soluble PD-L1. Soluble PD-1 and soluble PD-L1 refers to proteins with carboxyl-end truncations that remove the transmembrane-spanning regions and are fused to heterologous sequences, specifically the Fc portion of the human immunoglobuling G sequence (Ig) or the hexahistidine epitope tag (His). All binding studies were performed in an HTRF assay buffer consisting of dPBS supplemented with 0.1% (w/v) bovine serum albumin and 0.05% (v/v) Tween-20. […] PD-L1 fusion proteins from either human, cynomologous macaques, or mouse were used. HTRF detection was achieved using europium crypate-labeled anti-Ig monoclonal antibody (1 nM final) and allophycocyanin (APC) labeled anti-His monoclonal antibody (20 nM final). Antibodies were diluted in HTRF detection buffer and 5 μl was dispensed on top of binding reaction.

Where [1] appears, read: Table 8, Compound No. 1 variant macrocyclic peptides.
Setting [2] is: Table 9, Compound No. 71 variant macrocyclic peptides.

SMILES strings stand for the structures. Read-outs that look alike come from different tables or passages of the source. Positions of bridges follow the written chain, without caps; N, C: chain ends. Non-standard residues stand in square brackets, D forms with d. Residues, ends and D or L forms follow the SMILES beside them. ξ: configuration not given here. PEG12 = NCCOCCOCCOCCOCCOCCOCCOCCOCCOCCOCCOCCOCCC(=O)O; NMeF = CN[C@@H](Cc1ccccc1)C(=O)O; NMeNle = CCCC[C@H](NC)C(=O)O; αMeP = C[C@@]1(C(=O)O)CCCN1; NMeA = CN[C@@H](C)C(=O)O; ξP = O=C(O)C1CCCN1; Sar = CNCC(=O)O

The results in this text go back to US9850283B2, “Macrocyclic inhibitors of the PD-1/PD-L1 and CD80(B7-1)/PD-L1 protein/protein interactions” (BRISTOL-MYERS SQUIBB COMPANY, priority 2013, dated 2017).

T1 sequence (Q9NZQ7 with tags, fused parts or gaps): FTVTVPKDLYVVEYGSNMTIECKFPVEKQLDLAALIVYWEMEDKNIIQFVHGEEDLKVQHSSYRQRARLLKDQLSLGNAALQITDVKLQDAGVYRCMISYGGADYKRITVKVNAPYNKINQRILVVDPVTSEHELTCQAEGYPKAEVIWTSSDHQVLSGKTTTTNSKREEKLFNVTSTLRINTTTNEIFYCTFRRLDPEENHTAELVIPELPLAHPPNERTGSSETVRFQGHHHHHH

`CCCC[C@H]1C(=O)N(C)[C@@H](CCCC)C(=O)N[C@@H](CCCNC(=N)N)C(=O)N[C@H](C(=O)NCC(N)=O)CSCC(=O)N[C@@H](Cc2ccccc2)C(=O)N(C)[C@@H](C)C(=O)N[C@@H](CC(N)=O)C(=O)N2CCC[C@@]2(C)C(=O)N[C@@H](Cc2cnc[nH]2)C(=O)N[C@@H](CC(C)C)C(=O)N(C)CC(=O)N[C@@H](Cc2c[nH]c3ccccc23)C(=O)N[C@@H](CO)C(=O)N[C@@H](Cc2c[nH]c3ccccc23)C(=O)N1C` [Compound No. 49] ({CH2CO}-F[NMeA]N[αMeP]HL[Sar]WSW[NMeNle][NMeNle]RCG-NH2; thioether N-14): the IC50 under setting [1] worked out at 34 nM.

Regarding `CCCC[C@H]1C(=O)N(C)CC(=O)N[C@@H](CC(=O)O)C(=O)N[C@@H](C(C)C)C(=O)N(C)[C@@H](Cc2ccccc2)C(=O)N[C@@H](Cc2ccc(O)cc2)C(=O)N(C)CC(=O)N[C@@H](Cc2c[nH]c3ccccc23)C(=O)N[C@@H](Cc2ccc(O)cc2)C(=O)N[C@@H](CC(C)C)C(=O)N[C@H](C(=O)NCC(=O)NCCOCCOCCOCCOCCOCCOCCOCCOCCOCCOCCOCCOCCC(N)=O)CSCC(=O)N[C@@H](Cc2ccccc2)C(=O)N(C)[C@@H](Cc2ccccc2)C(=O)N1C` [Compound No. 118] ({CH2CO}-F[NMeF][NMeNle][Sar]DV[NMeF]Y[Sar]WYLCG[PEG12]-NH2; thioether N-13), the IC50 (Table 10, Compound No. 116 variant macrocyclic peptides) stood at 3 nM.

As for `CCCC[C@H]1C(=O)N(C)[C@@H](CCCC)C(=O)N[C@@H](CCCNC(=N)N)C(=O)N[C@H](C(=O)NCC(N)=O)CSCC(=O)N[C@@H](Cc2ccccc2)C(=O)N(C)[C@@H](C)C(=O)N[C@@H](CC(N)=O)C(=O)N2CCCC2C(=O)N[C@@H](Cc2cnc[nH]2)C(=O)N[C@@H](C)C(=O)N(C)CC(=O)N[C@@H](Cc2c[nH]c3ccccc23)C(=O)N[C@@H](CO)C(=O)N[C@@H](Cc2c[nH]c3ccccc23)C(=O)N1C` (stereo partly drawn) [Compound No. 11] ({CH2CO}-F[NMeA]N[ξP]HA[Sar]WSW[NMeNle][NMeNle]RCG-NH2; thioether N-14), under setting [1], the IC50 amounted to 31 nM.

With `CCCC[C@H]1C(=O)N(C)CC(=O)N[C@@H](CC(=O)O)C(=O)N[C@@H](C(C)C)C(=O)N(C)[C@@H](Cc2ccccc2)C(=O)N[C@@H](C)C(=O)N(C)CC(=O)N[C@@H](Cc2c[nH]c3ccccc23)C(=O)N[C@@H](Cc2ccc(O)cc2)C(=O)N[C@@H](CC(C)C)C(=O)N[C@H](C(=O)NCC(N)=O)CSCC(=O)N[C@@H](Cc2ccccc2)C(=O)N(C)[C@@H](Cc2ccccc2)C(=O)N1C` [Compound No. 83] (HELM PEPTIDE1{[O=C(C[*:3])[*:2]].F.[meF].[CCCC[C@@H](C(=O)[*:2])N(C)[*:1]].[Sar].D.V.[meF].A.[Sar].W.Y.L.C.G.[am]}$PEPTIDE1,PEPTIDE1,1:R3-14:R3$$$V2.0), the IC50 under setting [2] is 35 nM.

In the case of `CCCC[C@H]1C(=O)N(C)CC(=O)N[C@@H](CC(=O)O)C(=O)N[C@@H](C(C)C)C(=O)N[C@@H](Cc2ccccc2)C(=O)N[C@@H](Cc2ccc(O)cc2)C(=O)N(C)CC(=O)N[C@@H](Cc2c[nH]c3ccccc23)C(=O)N[C@@H](Cc2ccc(O)cc2)C(=O)N[C@@H](CC(C)C)C(=O)N[C@H](C(=O)NCC(N)=O)CSCC(=O)N[C@@H](Cc2ccccc2)C(=O)N(C)[C@@H](Cc2ccccc2)C(=O)N1C` [Compound No. 82] (HELM PEPTIDE1{[O=C(C[*:3])[*:2]].F.[meF].[CCCC[C@@H](C(=O)[*:2])N(C)[*:1]].[Sar].D.V.F.Y.[Sar].W.Y.L.C.G.[am]}$PEPTIDE1,PEPTIDE1,1:R3-14:R3$$$V2.0), under setting [2], the IC50 was 47 nM.

As to `CCCC[C@H]1C(=O)N[C@@H](CCCNC(=N)N)C(=O)N[C@H](C(=O)NCC(N)=O)CSCC(=O)N[C@@H](Cc2ccccc2)C(=O)N(C)[C@@H](C)C(=O)N[C@@H](CC(N)=O)C(=O)N2CCC[C@H]2C(=O)N[C@@H](Cc2cnc[nH]2)C(=O)N[C@@H](CC(C)C)C(=O)N(C)CC(=O)N[C@@H](Cc2c[nH]c3ccccc23)C(=O)N[C@@H](CO)C(=O)N[C@@H](Cc2c[nH]c3ccccc23)C(=O)N(C)[C@@H](CC(C)C)C(=O)N1C` [Compound No. 65] (HELM PEPTIDE1{[O=C(C[*:3])[*:2]].F.[meA].N.P.H.L.[Sar].W.S.W.[meL].[CCCC[C@@H](C(=O)[*:2])N(C)[*:1]].R.C.G.[am]}$PEPTIDE1,PEPTIDE1,1:R3-15:R3$$$V2.0), the IC50 under setting [1] was determined as 43 nM.
